Usually MIC stands for the lowest concentration that inhibits growth of the organism. Low values mean a more susceptible organism, high ones a less susceptible organism. As a reminder, the IC50 is the concentration that gives 50% inhibition.

In brackets after ≈: the same amount, converted by molar mass.

In one test the test system is Klebsiella pneumoniae. Kind of test: Antibacterial activity against Klebsiella pneumoniae NBRC 14940 after 12 hrs by MTT assay. Type of test: functional. The following applies: NBRC 14940, 12 h. A general note: Tetrazolium dyes change colour on reduction, which living cells bring about.
The next test concerns HeLa. Kind of test: Cytotoxicity against human HeLa cells assessed as decrease in cell viability after 72 hrs by WST8 assay. It is filed as functional, cell-based.
The test system of another test is A549. Kind of test: Cytotoxicity against human A549 cells assessed as decrease in cell viability after 72 hrs by WST8 assay. Type of test: functional, cell-based. The following applies: A549, 72 h.
The test system of another test is WI-38. Kind of test: Cytotoxicity against human WI38 cells assessed as decrease in cell viability after 72 hrs by WST8 assay. It is filed as cell-based. The settings on record: WI-38, 72 h.
The subject of another test is Bacillus subtilis. The experiment in a line: Antibacterial activity against Bacillus subtilis NBRC 13719 after 12 hrs by MTT assay. Type of test: functional. The following applies: NBRC 13719, 12 h.
The next test concerns MCF7. Kind of test: Cytotoxicity against human MCF7 cells assessed as decrease in cell viability after 72 hrs by WST8 assay. The settings on record: MCF7, 72 h. It is filed as functional, cell-based.
The subject of a further test is Escherichia coli. Kind of test: Antibacterial activity against Escherichia coli NBRC 102203 after 12 hrs by MTT assay. Type of test: functional. The following applies: NBRC 102203, 12 h.
The subject of the next test is Staphylococcus aureus. The experiment in a line: Antibacterial activity against Staphylococcus aureus NBRC 100910 after 12 hrs by MTT assay. Type of test: functional. The settings on record: NBRC 100910, 12 h.

Regarding `C=C1CCC[C@@H]2[C@@](C=O)(Cc3cc(C(=O)OC)cc(OC)c3O)[C@H](C)CC[C@@]12C`, the MIC against Klebsiella pneumoniae, against Bacillus subtilis, with Escherichia coli and in the test with Staphylococcus aureus was above 100 µM in each case. The IC50 in the test with HeLa, in the test with A549, with WI-38 and in the test with MCF7 was above 50 µM each time.
In the case of `C=C1CCC[C@@H]2[C@@](C=O)(Cc3cc(C(=O)OC)c(O)c(OC)c3O)[C@H](C)CC[C@@]12C`, the MIC with Klebsiella pneumoniae was above 100 µM; against Bacillus subtilis, 25 µM (≈ 10.4 µg/mL); in the test on Escherichia coli, above 100 µM; against Staphylococcus aureus, above 100 µM. For the same molecule, the IC50 with HeLa was 7.2 µM; with A549, 7.8 µM; in the test on WI-38, 8.7 µM; in the test on MCF7 it was 5 µM.
Regarding `C=C1CCC[C@@H]2[C@@](CO)(Cc3cc(C(=O)OC)c(O)c(OC)c3O)[C@H](C)CC[C@@]12C`, the MIC against Klebsiella pneumoniae, against Bacillus subtilis, in the test on Escherichia coli and against Staphylococcus aureus was above 100 µM throughout. Also, the IC50 in the test on HeLa was above 50 µM; with A549, above 50 µM; with WI-38 it was 42.1 µM; in the test on MCF7 it was above 50 µM.
As for `C=C1CCC[C@H]2[C@](C)(CC3=C(O)C(=O)C=C(OCCCC)C3=O)[C@@H](C)CC[C@]12C`, the MIC against Klebsiella pneumoniae was above 100 µM; in the test on Bacillus subtilis, 6.25 µM (≈ 2.5 µg/mL); against Escherichia coli, above 100 µM; with Staphylococcus aureus, 12.5 µM (≈ 5.01 µg/mL). The IC50 with HeLa is 7.6 µM; in the test with A549 it was 6.6 µM; with WI-38, 8.2 µM; with MCF7, 9.6 µM.
Consider `C=C1CCC[C@@H]2[C@@](C)(Cc3cc(C(=O)OC)c(O)c(OC)c3O)[C@H](C)CC[C@@]12C`, for which the MIC is above 100 µM in the test on Klebsiella pneumoniae, 12.5 µM (≈ 5.03 µg/mL) in the test with Bacillus subtilis, above 100 µM against Escherichia coli and above 100 µM against Staphylococcus aureus. Moreover, the IC50 in the test on HeLa, in the test with A549, in the test with WI-38 and in the test with MCF7 was above 50 µM throughout.
As for `C=C1CCC[C@@H]2[C@@](C)(Cc3cc(C(=O)OC)cc(O)c3O)[C@H](C)CC[C@@]12C`, the MIC is above 100 µM against Klebsiella pneumoniae, 6.25 µM (≈ 2.33 µg/mL) in the test on Bacillus subtilis, above 100 µM against Escherichia coli and 6.25 µM (≈ 2.33 µg/mL) with Staphylococcus aureus. Also, the IC50 in the test on HeLa, in the test with A549, in the test on WI-38 and in the test on MCF7 was above 50 µM in each case.
For the molecule `C=C1CCC[C@H]2[C@](C)(CC3=C(O)C(=O)C=C(OC)C3=O)[C@@H](C)CC[C@]12C` [ILIMAQUINONE], the MIC is above 100 µM against Klebsiella pneumoniae, 6.25 µM (≈ 2.24 µg/mL) with Bacillus subtilis, above 100 µM with Escherichia coli and 6.25 µM (≈ 2.24 µg/mL) against Staphylococcus aureus. For the same molecule, the IC50 stood at 7.6 µM in the test with HeLa, 5.9 µM in the test with A549, 9.7 µM in the test with WI-38 and 8.3 µM in the test on MCF7.
For `C=C1CCC[C@H]2[C@](C)(CC3=C(O)C(=O)C=C(NCCc4ccccc4)C3=O)[C@@H](C)CC[C@]12C`, the MIC was above 100 µM in the test on Klebsiella pneumoniae, 6.25 µM (≈ 2.8 µg/mL) against Bacillus subtilis, above 100 µM in the test on Escherichia coli and 6.25 µM (≈ 2.8 µg/mL) with Staphylococcus aureus. Besides, the IC50 in the test on HeLa was determined as 5 µM; in the test with A549, 4 µM; in the test with WI-38 it was 3 µM; with MCF7, 6.5 µM.
Take `O=c1[nH]cc(F)c(=O)[nH]1` [FLUOROURACIL]: the half-maximal inhibitory concentration (IC50) in the test with HeLa was found to be 5.3 µM; in the test with A549, 4.7 µM; with WI-38, 6.8 µM; with MCF7 it was 5.6 µM.
Consider `C=C1CCC[C@H]2[C@](C)(CC3=C(O)C(=O)C=C(NCC(C)CC)C3=O)[C@@H](C)CC[C@]12C` (some centres not stated), for which the MIC against Klebsiella pneumoniae is above 100 µM; against Bacillus subtilis, 6.25 µM (≈ 2.59 µg/mL); with Escherichia coli, above 100 µM; against Staphylococcus aureus it was 6.25 µM (≈ 2.59 µg/mL). Further, the IC50 is 4.8 µM in the test with HeLa, 8.9 µM in the test on A549, 6.9 µM in the test with WI-38 and 7.6 µM with MCF7.
Consider `C=C1CCC[C@@H]2[C@@](CO)(Cc3cc(C(=O)OC)cc(OC)c3O)[C@H](C)CC[C@@]12C`, for which the MIC in the test on Klebsiella pneumoniae, in the test with Bacillus subtilis, against Escherichia coli and in the test on Staphylococcus aureus was above 100 µM each time. For the same molecule, the IC50 with HeLa is above 50 µM; in the test with A549, above 50 µM; in the test with WI-38 it was above 50 µM; in the test on MCF7, 42.6 µM.
On to `CC1(C)S[C@@H]2[C@H](NC(=O)[C@H](N)c3ccccc3)C(=O)N2[C@H]1C(=O)O` [AMPICILLIN], for which the MIC in the test with Bacillus subtilis and in the test on Staphylococcus aureus was 6.25 µM (≈ 2.18 µg/mL) throughout.
As for `C=C1CCC[C@@H]2[C@@](C)(Cc3cc(C(=O)OC)cc(OC)c3O)[C@H](C)CC[C@@]12C`, the MIC in the test with Klebsiella pneumoniae, in the test with Bacillus subtilis, in the test with Escherichia coli and against Staphylococcus aureus was above 100 µM throughout. Moreover, the IC50 in the test with HeLa, in the test on A549, in the test with WI-38 and in the test on MCF7 was above 50 µM each time.
Consider `C=C1CCC[C@H]2[C@](C)(CC3=C(O)C(=O)C=C(NCCCSC)C3=O)[C@@H](C)CC[C@]12C`, for which the MIC against Klebsiella pneumoniae is above 100 µM; with Bacillus subtilis, 12.5 µM (≈ 5.4 µg/mL); with Escherichia coli it was above 100 µM; in the test on Staphylococcus aureus, 12.5 µM (≈ 5.4 µg/mL). Also, the IC50 stood at 8 µM in the test on HeLa, 6.2 µM with A549, 8.8 µM in the test with WI-38 and 8.7 µM in the test with MCF7.
For the molecule `NC[C@H]1O[C@H](O[C@H]2[C@H](O)[C@@H](O[C@H]3O[C@H](CO)[C@@H](O)[C@H](N)[C@H]3O)[C@H](N)C[C@@H]2N)[C@H](O)[C@@H](O)[C@@H]1O` [KANAMYCIN], the values for the MIC with Klebsiella pneumoniae and against Escherichia coli were 6.25 µM (≈ 3.03 µg/mL) and 12.5 µM (≈ 6.06 µg/mL), respectively.
Take `C=C1CCC[C@H]2[C@](C)(CC3=C(O)C(=O)C=C(NCC(C)C)C3=O)[C@@H](C)CC[C@]12C`: the MIC was above 100 µM against Klebsiella pneumoniae, 12.5 µM (≈ 4.99 µg/mL) against Bacillus subtilis, above 100 µM in the test with Escherichia coli and 25 µM (≈ 9.99 µg/mL) in the test on Staphylococcus aureus. In addition, the IC50 in the test on HeLa is 7.6 µM; in the test on A549, 6.7 µM; in the test with WI-38 it was 3.5 µM; with MCF7 it was 4.6 µM.

Source of the values: ChEMBL document CHEMBL4020801, “New merosesquiterpenes from a Vietnamese marine sponge of Spongia sp. and their biological activities” (Bioorg Med Chem Lett, 2017).
